From US10874686B2, “Anthranilyl-adenosinemonosulfamate analogs and uses thereof” (Memorial Sloan-Kettering Cancer Center, priority 2015, dated 2020)
Read-outs that look alike come from different tables or passages of the source.

Tests used:
[1] = tested on: HHQ and PQS quinolone production in P. aeruginosa strain PA14; test: Inhibition of HHQ and PQS quinolone production in P. aeruginosa strain PA14 (LC-MS/MS); type: cell-based, Pseudomonas aeruginosa; conditions: for inhibition at 1500 µM / inhibition at 1000 µM: Pseudomonas aeruginosa
Experimental: The production of PQS and HHQ by strain PA14 was performed in triplicate in 14-mL round bottom falcon tubes containing 3-mL cultures in LB medium. Tubes were incubated at 37° C. in an orbital shaker at 225 rpm. Cultures were inoculated with 15-hour culture in LB in order to obtain a starting OD600=0.05, with or without inhibitors added. For PQS and HHQ analysis, a 20 μl aliquot was taken at time points as indicated. Each sample was diluted with 180 μL of methanol containing the internal standard (100 μM of d^4-PQS or d^4-HHQ) and 2% acetic acid. The solution was then vertexed and centrifuged at 13,000 g for 5 minutes, and the supernatant was transferred to a 96-well plates for LC-MS/MS analysis. Bacterial growth was measured by recording OD600 at 20 h to provide the data in FIG. 7A.
Liquid chromatography tandem mass spectrometry (LC-MS/MS) was carried out on an Agilent Technologies 6410 triple quad LC-MS/MS system with autosampler in electrospray ionization (ESI) mode, with an Agilent Zorbax Eclipse XDB-C18 reverse phase column (50×4.6 mm, 5 μm) using a flow rate of 0.5 mL/minute and an isocratic mobile phase of 60% CH3CN in 0.1% aqueous formic acid over 5 minutes. Positive electrospray in MRM mode was employed to quantify PQS and HHQ, using the ion transitions HHQ 244 to 159, d^4-HHQ 248 to 163, PQS 260 to 175, and d^4-PQS 264 to 179; shown in Table E3.
PqsA inhibitors 1-5 were evaluated for their ability to inhibit HHQ and PQS quinolone production in P. aeruginosa strain PA14 (FIG. 6). HHQ and PQS concentrations were determined by LC-MS/MS quantitation relative to deuterated internal standards. 6-Fluoroanthranilate (6FABA), a substrate analogue reported previously to inhibit quinolone production at millimolar concentrations, was used as a positive control. Compounds were initially tested at 1.5 mM concentration, and HHQ and PQS were quantified at 8 and 20 hours, respectively. These time points were selected based on an initial time course study of quinolone production in the absence of inhibitors, with HHQ or PQS production peaking at these respective time points. […] This could be due to differences in cell penetration, stability, and/or target specificity. Finally, because inhibitors of the quinolone quorum sensing pathway should not impact bacterial growth, we confirmed that none of the six inhibitors above inhibited growth over 20 h (FIG. 7A). Encouraged by the ability of anthranilyl-AMS (1) and anthranilyl-AMSN (2) to inhibit HHQ and PQS quinolone production, the activity of these two inhibitors and 6FABA were investigated in greater detail. In untreated controls, HHQ and PQS production peaked at 8 and 20 hours, respectively. Previously reported time course studies have similarly shown that HHQ levels peak at 6-8 hours while PQS levels continue to rise. See, e.g., Deziel et al. (2004) Proc. Natl. Acad. Sci. U.S.A 101, 1339; Kesarwani et al. (2011) PLoS Pathog. 7, e1002192. All three inhibitors were able to decrease quinolone production in a dose- and time-dependent manner (FIG. 2A). […] Such a perturbation might still be sufficient to impact P. aeruginosa virulence in vivo. […] See, e.g., Lesic et al. (2007) PLoS Pathog. 3, e126.

MRC5 cells = test: Cell health and viability image-based study (fluorescence microscopy), MRC5; conditions: for IC50: Homo sapiens, MRC5, imaging; for toxicity in words, imaging, MRC5: up to 1000 μM
Experimental: The multiparametric assay developed surveys a number of elements of cell health simultaneously. Using a combination of 2 dyes, we are able to simultaneously measure nuclear morphology, membrane integrity and cell proliferation. All measurements are made on live cells after an incubation time of 24H. Hoechst 33342 is used to measure total number of cells, nuclear morphology and cell proliferation. The nuclear impermeable dye Syto17 is used to assess the nuclear membrane integrity by measuring the nuclear translocation of the dye when the membrane gets porous after incubation with a toxic compound. Cells were plated at a density of 1500 cells/25 al in well in a 384 wells plate the day before incubation with the drugs. The following day, 0.1 al of the source plate are added to the assay plate. Then, 25 al of a fluorophores mixture containing Hoechst 33342, Syto17 diluted in EMEM was added to each well. Plates are read after 48 h incubation in the ImageXpress instrument (Molecular Devices) using the appropriate filters. Images are analyzed using an application of MetaXpress software (Molecular Devices) and data are presented using Prism software. Low Signal Control (C23): 5 μM Staurosporine; High Signal Control (C24): DMSO.

[2] = Pharmacokinetics in mice, plasma and lung; type: in vivo; conditions: 10 mg/kg intraperitoneal
Experimental: Twenty-four female mice were weighed and administered anthranilyl-AMS intraperitoneally at 10 mg/kg dose. The animals assigned for 24 hours sampling after dosing were kept in metabolic cages to collect urine and feces at an interval of 0 to 4, 4 to 8, and 8 to 24 hours. Approximately 60 μL of blood samples were collected from retro orbital plexus at 0.08, 0.25, 0.5, 1, 2, 4, 8, and 24 hours following i.p. administration. The blood samples were collected from three mice under light isoflurane anesthesia at each time point in labeled micro centrifuge tube containing K2EDTA solution. Blood samples were centrifuged at 4000 rpm for 10 minutes at 4±2° C. Immediately after plasma collection the animals were humanely euthanized by carbon dioxide asphyxiation, and lung samples were collected from each mouse at 0.08, 0.25, 0.5, 1, 2, 4, 8, and 24 hours. The tissue samples were then homogenized using ice-cold phosphate buffer saline (pH 7.4), and the total homogenate volume was three times of the tissue weight. The collected feces were weighed and homogenized with 9 volumes of ice-cold phosphate buffer saline (pH 7.4), and homogenates were stored below −70° C. until analysis. All samples were stored below −70° C. until sample analysis. The plasma and tissue samples were processed using protein precipitation with acetonitrile (ACN) and analyzed with fit for purpose LC-MS/MS method. Pharmacokinetic parameters were calculated using the non-compartmental analysis tool of Phoenix WinNonlin® (Version 6.3).

[3] = PA14, 8 h, read-out: inhibition of HHQ production
[4] = PA14, 20 h, read-out: inhibition of PQS production
[5] = PA14, read-out: inhibition of HHQ production
[6] = PA14, read-out: inhibition of PQS production
[7] = Hoechst 33342, read-out: Cell Count IC50, MRC5
[8] = Syto17, read-out: Nuclear membrane integrity IC50, MRC5

Structure (SMILES) | inhibition at 1500 µM [1, 3] | inhibition at 1500 µM [1, 4] | inhibition at 1000 µM [1, 5] | inhibition at 1000 µM [1, 6] | IC50 (MRC5 cells; [7]) | IC50 (MRC5 cells; [8]) | toxicity in words, imaging, MRC5 (MRC5 cells) | dose- and time-dependent decrease of quinolone production, in words ([1]; FIG. 2A) | AUC lung ([2]; lung) | Cmax lung ([2]; lung) | half-life ([2]; female, mouse, ip, lung, read-out: T1/2 lung) | AUC ([2]; female, mouse, ip, plasma) | Cmax ([2]; female, mouse, ip, plasma) | half-life ([2]; female, mouse, ip, plasma, read-out: T1/2 plasma) | Kp ([2]; female, mouse, lung / plasma, ip, read-out: lung/plasma ratio)
Nc1ccccc1C(=O)NS(=O)(=O)NC[C@H]1O[C@@H](n2cnc3c(N)ncnc32)[C@H](O)[C@@H]1O [anthranilyl-AMSN, Anthranilyl-AMSN] | 90% | 92% | 84% | 84% | 58.8 µM | 74.3 µM | significant toxicity in the tested range |  |  |  |  |  |  |  | 
Nc1ccccc1C(=O)NS(=O)(=O)OC[C@H]1O[C@@H](n2cnc3c(N)ncnc32)[C@H](O)[C@@H]1O [anthranilyl-AMS, Anthranilyl-AMS] | 67% | 77% | 47% | 40% | 21.5 µM | 25.5 µM | significant toxicity in the tested range | same trend of inhibition, albeit again with lower potency | 63.9 μg · min/mL or μg · min/g | 2000 ± 300 ng/mL | 2.17 h | 5000 ng·h/mL | 12100 ± 2900 ng/mL | 1.06 h | 0.21
